Assays:
[1] = tested on: Human immunodeficiency virus 1; test: Antiviral activity against Human immunodeficiency virus 1 IIIB infected human MT4 cells assessed as inhibition of virus-induced cytopathicity after 4 days by MTT assay; assay type: functional, organism-based; details: MT4, 96 h
[2] = Selectivity index, ratio of CC50 for human MT4 cells to EC50 for HIV-2 ROD infected in MT4 cells; assay type: toxicity, cell-based; details: read-out: Ratio CC50/EC50
[3] = Cytotoxicity against Homo sapiens (human) MT4 cells by MTT assay; assay type: cell-based
[4] = tested on: Human immunodeficiency virus 2; test: Antiviral activity against Human immunodeficiency virus type 2 (ISOLATE ROD) infected human MT4 cells assessed as inhibition of virus-induced cytopathicity after 4 days by MTT assay; assay type: functional, organism-based; details: Human immunodeficiency virus 2, ISOLATE ROD, MT4, 96 h
[5] = Selectivity index, ratio of CC50 for human MT4 cells to EC50 for HIV-1 3B infected in MT4 cells; assay type: toxicity, cell-based; details: read-out: Ratio CC50/EC50

Row | SMILES | EC50 [1] [µM] | selectivity ratio [2] | CC50 [3] [µM] | EC50 [4] [µM] | selectivity ratio [5]
1 | O=C(CSc1nnnn1-c1cccc2ccccc12)N/N=C/c1ccc(O)cc1 | 31.6 | 1 | > 309 | > 309 | > 9
2 | O=C(CSc1nnnn1-c1cccc2ccccc12)N/N=C/c1ccccc1O | > 4.85 | < 1 | 4.85 | > 4.85 | < 1
3 | CC(C)Nc1cccnc1N1CCN(C(=O)c2cc3cc(NS(C)(=O)=O)ccc3[nH]2)CC1 [DELAVIRDINE] |  |  | > 3.83 |  | > 12
4 | O=C(CSc1nnnn1-c1cccc2ccccc12)N/N=C/c1ccccc1 | ≥ 21.4 | < 1 | 216 | > 229 | ≤ 10
5 | O=C(CSc1nnnn1-c1cccc2ccccc12)N/N=C/c1ccccc1Cl | > 69.7 | < 1 | 69.7 | > 69.7 | < 1
6 | COc1ccc(/C=N/NC(=O)CSc2nnnn2-c2cccc3ccccc23)cc1 | > 299 | 1 | > 299 | > 299 | 1
7 | O=C(CSc1nnnn1-c1cccc2ccccc12)N/N=C/c1ccc(Cl)cc1 | > 296 | 1 | > 296 | > 296 | 1
8 | O=C(CSc1nnnn1-c1cccc2ccccc12)N/N=C/c1cccc(O)c1 | 29.6 | < 1 | 169 | > 169 | 6
9 | O=C(CSc1nnnn1-c1cccc2ccccc12)N/N=C/c1ccc(F)cc1 | > 308 | 1 | > 308 | > 308 | 1
10 | O=C1Nc2ccc(Cl)cc2[C@@](C#CC2CC2)(C(F)(F)F)O1 [EFAVIRENZ] |  |  | > 6.34 |  | > 1430
11 | O=C(CSc1nnnn1-c1cccc2ccccc12)N/N=C/c1cccs1 | > 317 | 1 | > 317 | > 317 | 1
12 | COc1ccc(/C=N/NC(=O)CSc2nnnn2-c2cccc3ccccc23)cc1OC | ≥ 36.3 | < 1 | 191 | > 191 | ≤ 5
13 | Cc1cn([C@H]2C[C@H](N=[N+]=[N-])[C@@H](CO)O2)c(=O)[nH]c1=O [ZIDOVUDINE] |  |  | > 93.5 |  | > 6190
14 | O=C(CSc1nnnn1-c1cccc2ccccc12)N/N=C/c1ccco1 | > 330 | 1 | > 330 | > 330 | 1
15 | Cc1cccc(/C=N/NC(=O)CSc2nnnn2-c2cccc3ccccc23)c1 | > 269 | < 1 | 269 | > 269 | < 1
16 | CN(C)c1ccc(/C=N/NC(=O)CSc2nnnn2-c2cccc3ccccc23)cc1 | > 290 | 1 | > 290 | > 290 | 1
17 | COc1ccc(O)c(/C=N/NC(=O)CSc2nnnn2-c2cccc3ccccc23)c1 | > 4.51 | < 1 | 4.51 | > 4.51 | < 1
18 | COc1cccc(/C=N/NC(=O)CSc2nnnn2-c2cccc3ccccc23)c1OC | > 192 | < 1 | 192 | > 192 | < 1
19 | Cc1ccnc2c1NC(=O)c1cccnc1N2C1CC1 [NEVIRAPINE] |  |  | > 15 |  | 
20 | O=C(CSc1nnnn1-c1cccc2ccccc12)N/N=C/c1cccc(Cl)c1 | > 240 | < 1 | 240 | > 240 | < 1
21 | O=C(CSc1nnnn1-c1cccc2ccccc12)N/N=C/c1ccc([N+](=O)[O-])cc1 | > 261 | 1 | ≥ 261 | > 261 | 1
22 | COc1ccc(/C=N/NC(=O)CSc2nnnn2-c2cccc3ccccc23)c(OC)c1 | > 28.3 | < 1 | 28.3 | > 28.3 | < 1
23 | O=C(CSc1nnnn1-c1cccc2ccccc12)N/N=C/c1ccccc1F | > 118 | 1 | ≥ 118 | > 118 | 1
24 | COc1cc(/C=N/NC(=O)CSc2nnnn2-c2cccc3ccccc23)ccc1O | > 288 | 1 | > 288 | > 288 | 1
